Measurements reported in the supplement of paper PMC11003180.

Columns and labels:
Experiment in all cases: drug sensitivity score (DSS) from 5-dose viability curve (DSS (area-based score, 0 = no response)); higher = more sensitive (stronger viability inhibition); extreme values may be limits of the assay
[1] = system: MDCK wild-type - doxycycline; settings: doxycycline: none; 72 h
How it was run: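 Drug sensitivity scores came from Breeze pipeline dose-response fits of CellTiter-Glo luminescence, scaled per plate between vehicle and positive controls. The assay used parental MDCK cells without doxycycline at 2000 cells/well, exposed for 72 h to 528 oncology drugs at five doses (1-10,000 nM).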

[2] = system: MDCK wild-type + doxycycline; settings: doxycycline: 10 ng/mL; 72 h
How it was run: (§1)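 Two MDCK lines, parental and doxycycline-inducible, received doxycycline at 10 ng/mL in the medium before being plated at 2000 cells/well onto a pre-spotted 384-well oncology library of 528 drugs at five doses (1-10,000 nM). Incubation lasted 72 h at 37 °C. Viability was read by CellTiter-Glo luminescence, scaled per plate between vehicle and positive controls, and converted to drug sensitivity scores through Breeze curve fitting.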

[3] = system: MDCK p60AmotL2-inducible + doxycycline (p60AmotL2 expressing); settings: doxycycline: 10 ng/mL; 72 h
How it was run: as §1

Compound | drug sensitivity score [1] | drug sensitivity score [2] | drug sensitivity score [3]
O[C@H]1CC[C@H](Nc2ncc3nc(Nc4c(F)cc(F)cc4F)n([C@H]4CCOC4)c3n2)CC1 [Tanzisertib] | 0 | 0.1 | 0.9
Cc1ncc(-c2ccnc(Nc3ccc(S(C)(=O)=O)cc3)n2)n1C(C)C [AZD-5438] | 9.9 | 13.1 | 9.1
CC(C)NC(=O)COc1cccc(-c2nc(Nc3ccc4[nH]ncc4c3)c3ccccc3n2)c1 [KD025] | 0.8 | 0 | 0
O=C(c1cccc(Cl)c1F)N1CCN(Cc2cccc(Nc3nccs3)n2)CC1 [MK-8745] | 6.6 | 9.5 | 12.4
COc1cc(OC2CCN(C)CC2)ccc1Nc1ncc2c(n1)n(C1CCCC1)c(=O)n2C [AZ 3146] | 5.1 | 5.1 | 6.3
Cc1c(Cn2c(C)nc3c(C(=O)O)cc(N4CCOCC4)cc32)cccc1C(F)(F)F | 0 | 0 | 0
CC(C)[C@@H](CS(=O)(=O)C(C)C)N1C(=O)[C@@](C)(CC(=O)O)C[C@H](c2cccc(Cl)c2)[C@H]1c1ccc(Cl)cc1 [AMG-232] | 5.9 | 7.2 | 9.8
COc1cccc2c1C(=O)c1c(O)c3c(c(O)c1C2=O)C[C@@](O)(C(=O)CO)C[C@@H]3O[C@H]1C[C@H](N)[C@H](O)[C@H](C)O1 [Doxorubicin] | 3.7 | 8.3 | 9.8
Cc1cc(Nc2cc(N3CCN(C)CC3)nc(Sc3ccc(NC(=O)C4CC4)cc3)n2)n[nH]1 [Tozasertib] | 1.4 | 4.2 | 8.6
COc1ccc2[nH]cc(/C=C3\C(=O)Nc4ccc(NC(=O)CCN5CCCCC5)cc43)c2c1 | 6 | 7.3 | 9.4
NCC(=O)Nc1ccc(-n2nc(C(F)(F)F)cc2-c2ccc3c(ccc4ccccc43)c2)cc1 | 0 | 0 | 0
NC[C@@](O)(c1ccc(Cl)cc1)c1ccc(-c2cn[nH]c2)cc1 | 0 | 0 | 0
CCN1CCN(Cc2ccc(Nc3ncc(F)c(-c4cc(F)c5nc(C)n(C(C)C)c5c4)n3)nc2)CC1 [Abemaciclib] | 3.3 | 5.6 | 7.3
CN(C)Cc1ccc(S(=O)(=O)n2ccc(/C=C/C(=O)NO)c2)cc1 [Resminostat] | 5 | 8.8 | 10.4
Cc1cc(Nc2cc(N3CCN(C)CC3)nc(/C=C/c3ccccc3)n2)n[nH]1 [ENMD-2076] | 6.5 | 8.5 | 10.7
CC(C)N(CCCNC(=O)Nc1ccc(C(C)(C)C)cc1)C[C@H]1O[C@@H](n2cc(Br)c3c(N)ncnc32)[C@H](O)[C@@H]1O [SGC0946] | 0 | 0 | 0
Cc1c(-c2c(-c3ccc(F)o3)sc3ncnc(O[C@H](Cc4ccccc4OCc4ccnn4CC(F)(F)F)C(=O)O)c23)ccc(OCCN2CCN(C)CC2)c1Cl | 0 | 0 | 0
Cn1c(Nc2ccc(C(F)(F)F)cc2)nc2cc(Oc3ccnc(-c4ncc(C(F)(F)F)[nH]4)c3)ccc21 [NVP-RAF265] | 0 | 0 | 0
CC/C(=C(\c1ccccc1)c1ccc(OCCN(C)C)cc1)c1ccccc1 [Tamoxifen] | 0 | 0 | 1
Nc1cc(C(F)(F)F)c(-c2cc(N3CCOCC3)nc(N3CCOCC3)n2)cn1 [Buparlisib] | 5.1 | 7 | 6.3
O=c1[nH]cc(F)c(=O)[nH]1 [Fluorouracil] | 8.6 | 9.7 | 9.2
CCN(c1cc(-c2ccc(CN3CCOCC3)cc2)cc(C(=O)NCc2c(C)cc(C)[nH]c2=O)c1C)C1CCOCC1 [Tazemetostat] | 0 | 0 | 2.1

Compound | drug sensitivity score [1] | drug sensitivity score [2] | drug sensitivity score [3]
Cc1cc(C)c(CNC(=O)c2cc(-c3ccc(CN4CCOCC4)cc3)cc3c2cnn3C2CCCC2)c(=O)[nH]1 [EPZ-5687] | 0 | 0 | 0
Nc1nc2[nH]cnc2c(=S)[nH]1 [Thioguanine] | 1.1 | 3.8 | 1.5
CC[C@]1(O)C[C@H]2CN(CCc3c([nH]c4ccccc34)[C@@](C(=O)OC)(c3cc4c(cc3OC)N(C=O)[C@H]3[C@@](O)(C(=O)OC)[C@H](OC(C)=O)[C@]5(CC)C=CCN6CC[C@]43[C@@H]65)C2)C1 [Vincristine] | 20.2 | 20.3 | 23.1
CO[C@H]1C[C@@H]2CC[C@@H](C)[C@@](O)(O2)C(=O)C(=O)N2CCCC[C@H]2C(=O)O[C@H]([C@H](C)C[C@@H]2CC[C@@H](OP(C)(C)=O)[C@H](OC)C2)CC(=O)[C@H](C)/C=C(\C)[C@@H](O)[C@@H](OC)C(=O)[C@H](C)C[C@H](C)/C=C/C=C/C=C/1C [Ridaforolimus] | 0 | 0.6 | 9.8
COc1ccc(C[C@H](NC(=O)[C@H](C)NC(=O)CN2CCOCC2)C(=O)N[C@@H](Cc2ccccc2)C(=O)C2(C)CO2)cc1 (stereo in doubt) [ONX-0914] | 8.6 | 10.4 | 12.5
CC[C@@](C)(Nc1ccnc(-c2c[nH]c3ncccc23)n1)C(=O)NCC(F)(F)F [Decernotinib] | 0 | 0 | 0
COc1cc2ncnc(Nc3cccc(Cl)c3F)c2cc1OC(=O)N1CCN(C)C[C@H]1C [AZD3759] | 0 | 0 | 6.6
CC[C@@H]1C(=O)N(C)c2cnc(Nc3ccc(C(=O)N[C@H]4CC[C@H](N5CCN(CC6CC6)CC5)CC4)cc3OC)nc2N1C(C)C [Volasertib] | 16.6 | 15.3 | 17.4
Nc1nc(Nc2ccc3c(c2)CC[C@@H](N2CCCC2)CC3)nn1-c1cc2c(nn1)-c1ccccc1CCC2 [BGB324] | 5.1 | 5 | 5.8
COc1cccc(OCCCN)c1-c1cc(Nc2cnc(C#N)cn2)n[nH]1 [Prexasertib] | 0.8 | 2.2 | 3.5
COCC1(CO)C(=O)C2CCN1CC2 (configuration not stated) [APR-246] | 0 | 0 | 0
CN1CCN(c2ccc(C(=O)Nc3n[nH]c4ccc(Cc5cc(F)cc(F)c5)cc34)c(NC3CCOCC3)c2)CC1 [Entrectinib] | 0 | 0 | 0.6
CCN(CC)Cc1ccc2cc(COC(=O)Nc3ccc(C(=O)NO)cc3)ccc2c1 [Givinostat] | 4.8 | 4.5 | 7.1
COc1c(OCCCN2CCOCC2)ccc2c1N=C(NC(=O)c1cnc(N)nc1)N1CCN=C21 [Copanlisib] | 5.8 | 6.2 | 10.9
S=C(NCc1ccc2c(c1)OCO2)N1CCN(c2ncnc3c2oc2ccccc23)CC1 [Amuvatinib] | 2.3 | 3.1 | 6
CCNC(=O)c1noc(-c2cc(C(C)C)c(O)cc2O)c1-c1ccc(CN2CCOCC2)cc1 [Luminespib] | 15.8 | 18.4 | 20.7
CN1CCC(CNc2ccc3ncc(-c4cccc(OC(F)(F)F)c4)n3n2)CC1 [SGI-1776] | 6.6 | 6.3 | 7.5
CN(C)CCCOc1ccc(-c2ccc3ncc4c(c3c2)n(C2CCOCC2)c(=O)n4C)cn1 [AZD0156] | 0 | 0 | 1
Cc1cn(-c2cc(NC(=O)c3ccc(C)c(Nc4nccc(-c5cnccn5)n4)c3)cc(C(F)(F)F)c2)cn1 [Radotinib] | 0 | 0 | 0
CC#CC(=O)N1CCC[C@H]1c1nc(-c2ccc(C(=O)Nc3ccccn3)cc2)c2c(N)nccn12 [Acalabrutinib] | 0 | 0 | 0
COc1cc2/c(=N/c3ccc(Br)cc3F)nc[nH]c2cc1OCC1CCN(C)CC1 [Vandetanib] | 0 | 0 | 4.6
COC[C@H](NC(=O)c1cnc(C)s1)C(=O)N[C@@H](COC)C(=O)N[C@@H](Cc1ccccc1)C(=O)[C@@]1(C)CO1 [Oprozomib] | 17.9 | 17.6 | 17.4
